Experimental data published in US8632759B2, “Hair restorer” (Cosmo Oil Co., Ltd., priority 2004, dated 2014).

Test system: C3H/HeNCrJ mice
Test: Hair growth test on clipped backs of mice
Assay type: in vivo
Settings: C3H/HeNCrJ mice in telogen phase, n=3; 0.2 ml sprayed on clipped back once a day; hair measured under microscope
From the text: In Table 1,5-aminolevulinic acid (sometimes abbreviated as ALA) of the present invention and iron compounds, and the blend compositions of them and urea are shown in wt %. For 1 g of ALA, 0.4 g of ferrous citrate, 2.81 g of iron lactate, 5.7 g of iron sodium diethylenetriaminepentaacetate, 5.6 g of iron ammonium diethylenetriaminepentaacetate, and 0.36 g of ferrous gluconate were blended respectively. The body hair on the backs of C3H/HeNCrJ mice (n=3 in each group), which were in telogen phase of hair growth cycle, was clipped with a hair clipper, and each suspension shown in Table 1 was applied to the back once a day, in an amount of 0.2 ml, by spraying uniformly.
In addition, photographs of the backs of mice on which the sample No. 8 of the present invention, 5% minoxidil (positive control), and distilled water (negative control) were respectively applied were taken 20 days after the application.

Structure (SMILES): NCC(=O)CCC(=O)O [Control, 5-aminolevulinic acid]
- Hair Length after 2 weeks: 1.08 mm

Structure (SMILES): Nc1cc(N2CCCCC2)nc(N)[n+]1[O-] [5% Minoxidil, 6-(1-piperidinyl)-2,4-pyrimidinediamine-3-oxide]
- Hair Length after 2 weeks: 1.70 mm
